US7560450B2, “Xanthine derivatives, the preparation thereof and their use as pharmaceutical compositions” (Boehringer Ingelheim Pharma GmbH & Co., KG, priority 2002, dated 2009)

Test system: rats
Assay: Tolerability after oral administration to rats (behaviour)
Assay type: in vivo
Conditions: 10 mg/kg

| SMILES | changes in the animals' behaviour |
| --- | --- |
| CC#CCn1c(N2CCC[C@@H](N)C2)nc2c1c(=O)n(CC(=O)Nc1ccccn1)c(=O)n2C [Example 1(3), 1-{[(pyridin-2-yl)aminocarbonyl]methyl}-3-methyl-7-(2-butyn-1-yl)-8-[(R)-3-amino-piperidin-1-yl]-xanthine] | no changes in the animals' behaviour could be detected |

Target: T1, DPP-IV (Homo sapiens, UniProt P27487)
T1 construct: an extract of human colon carcinoma cell line Caco-2 is used as the DPP IV source; endogenous in cells; host or cells: Caco-2 (human colon carcinoma), differentiated to induce DPP-IV expression; Nonidet-P40 solubilised extract
T1 sequence (P27487 whole entry): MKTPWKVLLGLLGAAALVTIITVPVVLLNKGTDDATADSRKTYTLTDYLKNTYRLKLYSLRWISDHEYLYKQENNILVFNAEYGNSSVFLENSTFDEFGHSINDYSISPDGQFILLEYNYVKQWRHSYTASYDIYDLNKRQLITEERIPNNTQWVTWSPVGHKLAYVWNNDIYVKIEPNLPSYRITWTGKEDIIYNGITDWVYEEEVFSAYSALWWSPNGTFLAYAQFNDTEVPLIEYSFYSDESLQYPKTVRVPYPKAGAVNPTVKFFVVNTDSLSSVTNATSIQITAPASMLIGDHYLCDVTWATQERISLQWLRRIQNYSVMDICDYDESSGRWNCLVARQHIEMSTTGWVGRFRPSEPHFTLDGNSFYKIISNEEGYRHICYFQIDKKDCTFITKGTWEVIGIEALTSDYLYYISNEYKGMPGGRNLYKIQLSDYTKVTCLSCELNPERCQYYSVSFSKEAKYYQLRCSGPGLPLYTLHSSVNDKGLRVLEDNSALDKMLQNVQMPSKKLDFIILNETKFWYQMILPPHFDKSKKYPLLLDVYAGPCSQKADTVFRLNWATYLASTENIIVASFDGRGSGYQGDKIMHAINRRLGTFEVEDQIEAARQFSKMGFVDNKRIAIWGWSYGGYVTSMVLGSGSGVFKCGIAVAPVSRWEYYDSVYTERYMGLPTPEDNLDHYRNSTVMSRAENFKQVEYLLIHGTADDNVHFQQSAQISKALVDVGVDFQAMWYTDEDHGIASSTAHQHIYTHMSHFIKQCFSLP
Assay: DPP-IV assay with Caco-2 cell extract as DPP IV source
Assay type: biochemical
Conditions: extract of human colon carcinoma cell line Caco-2 as DPP IV source; substrate AFC 100 μM; 60 minutes at ambient temperature; 11 measuring points; read-out: DPP IV inhibition IC50
Description: The differentiation of the cells in order to induce the DPP-IV expression was carried out as described by Reiher et al. in an article entitled “Increased expression of intestinal cell line Caco-2”, which appeared in Proc. Natl. Acad. Sci. Vol. 90, pages 5757-5761 (1993). The cell extract was obtained from cells solubilised in a buffer (10 mM Tris HCl, 0.15 M NaCl, 0.04 t.i.u. aprotinin, 0.5% Nonidet-P40, pH 8.0) by centrifuging at 35,000 g for 30 minutes at 4° C. (to remove cell debris).
The DPP-IV assay was carried out as follows:
50 μl substrate solution (AFC; AFC is amido-4-trifluoromethylcoumarin), final concentration 100 μM, were placed in black microtitre plates. 20 μl of assay buffer (final concentrations 50 mM Tris HCl pH 7.8, 50 mM NaCl, 1% DMSO) was pipetted in. The reaction was started by adding 30 μl of solubilised Caco-2 protein (final concentration 0.14 μg of protein per well). The test substances to be investigated were typically added prediluted in 20 μl, and the volume of assay buffer was then reduced accordingly. The reaction was carried out at ambient temperature, incubating for 60 minutes. Then the fluorescence was measured in a Victor 1420 Multilabel Counter, the excitation wavelength being 405 nm and the emission wavelength being 535 nm. Blank readings (corresponding to 0% activity) were obtained in mixtures without any Caco-2 protein (volume replaced by assay buffer), control values (corresponding to 100% activity) were obtained in mixtures with no substance added. The potency of the test substances in question, expressed as IC50 values, was calculated from dosage/activity curves consisting of 11 measuring points in each case.

| IC50 | SMILES |
| --- | --- |
| 46 nM | CC#CCn1c(N2CCC[C@@H](N)C2)nc2c1c(=O)n(CC(=O)NCc1ccccc1)c(=O)n2C [1(1), 1-[(benzylaminocarbonyl)methyl]-3-methyl-7-(2-butyn-1-yl)-8-[(R)-3-amino-piperidin-1-yl]-xanthine] |
| 26 nM | CC#CCn1c(N2CCC[C@@H](N)C2)nc2c1c(=O)n(CC(=O)Nc1ccccc1)c(=O)n2C [1(2), 1-[(phenylaminocarbonyl)methyl]-3-methyl-7-(2-butyn-1-yl)-8-[(R)-3-amino-piperidin-1-yl]-xanthine] |
| 13 nM | CC#CCn1c(N2CCC[C@@H](N)C2)nc2c1c(=O)n(CC(=O)OCc1cccnc1)c(=O)n2C [1(4), 1-{[(pyridin-3-yl)methoxycarbonyl]methyl}-3-methyl-7-(2-butyn-1-yl)-8-[(R)-3-amino-piperidin-1-yl]-xanthine] |
| 7 nM | CC#CCn1c(N2CCC[C@@H](N)C2)nc2c1c(=O)n(CC(=O)Nc1cccnc1)c(=O)n2C [1(5), 1-{[(pyridin-3-yl)aminocarbonyl]methyl}-3-methyl-7-(2-butyn-1-yl)-8-[(R)-3-amino-piperidin-1-yl]-xanthine] |
| 722 nM | CC#CCn1c(N2CCC[C@@H](N)C2)nc2c1c(=O)n(CC(=O)Nc1ccccc1C)c(=O)n2C [1(6), 1-{[(2-methyl-phenyl)aminocarbonyl]methyl}-3-methyl-7-(2-butyn-1-yl)-8-[(R)-3-amino-piperidin-1-yl]-xanthine] |
| 4 nM | CC#CCn1c(N2CCC[C@@H](N)C2)nc2c1c(=O)n(CC(=O)Nc1ccccc1[N+](=O)[O-])c(=O)n2C [1(7), 1-{[(2-nitro-phenyl)aminocarbonyl]methyl}-3-methyl-7-(2-butyn-1-yl)-8-[(R)-3-amino-piperidin-1-yl]-xanthine] |
| 42 nM | CC#CCn1c(N2CCCC(N)C2)nc2c1c(=O)n(CC(=O)Nc1ccc(C#N)cc1)c(=O)n2C (stereo not shown) [1(8), 1-{[(4-cyano-phenyl)aminocarbonyl]methyl}-3-methyl-7-(2-butyn-1-yl)-8-(3-amino-piperidin-1-yl)-xanthine] |
| 32 nM | CC#CCn1c(N2CCC[C@@H](N)C2)nc2c1c(=O)n(CC(=O)Nc1ccccc1OC)c(=O)n2C [1(9), 1-{[(2-methoxy-phenyl)aminocarbonyl]methyl}-3-methyl-7-(2-butyn-1-yl)-8-[(R)-3-amino-piperidin-1-yl]-xanthine] |
| 286 nM | CC#CCn1c(N2CCCC(N)C2)nc2c1c(=O)n(CC(=O)COc1ccccc1)c(=O)n2C (stereo not shown) [1(10), 1-(2-oxo-3-phenoxy-propyl)-3-methyl-7-(2-butyn-1-yl)-8-(3-amino-piperidin-1-yl)-xanthine] |
| 28 nM | CC#CCn1c(N2CCCC(N)C2)nc2c1c(=O)n(CC(=O)NCc1ccccc1N)c(=O)n2C (stereo not shown) [1(11), 1-[(2-amino-benzylaminocarbonyl)methyl]-3-methyl-7-(2-butyn-1-yl)-8-(3-amino-piperidin-1-yl)-xanthine] |
| 4 nM | CC#CCn1c(N2CCC[C@@H](N)C2)nc2c1c(=O)n(CC(=O)Nc1ccccn1)c(=O)n2C [Example 1(3), 1-{[(pyridin-2-yl)aminocarbonyl]methyl}-3-methyl-7-(2-butyn-1-yl)-8-[(R)-3-amino-piperidin-1-yl]-xanthine] |
| 27 nM | CC#CCn1c(N2CCC[C@@H](N)C2)nc2c1c(=O)n(CC(=O)OCc1ccccc1)c(=O)n2C [Example 1, 1-[(benzyloxycarbonyl)methyl]-3-methyl-7-(2-butyn-1-yl)-8-[(R)-3-amino-piperidin-1-yl]-xanthine] |
